Test results from ChEMBL document CHEMBL1201862, “PubChem BioAssay data set” (2004).
The source made the active and inactive calls.

Legend:
[1] = Luminescence-based cell-based high throughput dose response assay to identify activators of the DAF-12 from the parasite S. stercoralis (ssDAF-12).; type: functional
[2] = biological target: T1, Oxysterols receptor LXR-beta (Homo sapiens, UniProt P55055); test: LXR agonists, Gal4 luciferase reporter, dose response, counter-screen for ssDAF-12 agonist project, cell-based, luminescence, HEK293, S. stercoralis campaign (AID 720737); type: functional; conditions: read-out: IC50 (the source's name)
T1 sequence (P55055 whole entry): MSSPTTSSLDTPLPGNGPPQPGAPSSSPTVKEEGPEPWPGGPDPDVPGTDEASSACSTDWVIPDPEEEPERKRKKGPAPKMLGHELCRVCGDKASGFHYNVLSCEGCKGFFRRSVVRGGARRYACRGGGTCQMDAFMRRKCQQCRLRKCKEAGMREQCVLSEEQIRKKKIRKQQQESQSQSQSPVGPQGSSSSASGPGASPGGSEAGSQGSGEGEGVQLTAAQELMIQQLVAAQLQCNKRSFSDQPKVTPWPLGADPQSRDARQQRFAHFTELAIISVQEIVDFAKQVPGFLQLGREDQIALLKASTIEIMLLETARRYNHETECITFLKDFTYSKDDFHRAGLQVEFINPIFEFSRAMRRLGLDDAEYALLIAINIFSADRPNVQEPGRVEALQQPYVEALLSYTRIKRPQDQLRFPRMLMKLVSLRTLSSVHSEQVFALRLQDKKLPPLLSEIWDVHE

HeLa = test: HeLa cell cytotoxicity, dose response, cytotoxicity control, ATP luminescence, cherry-pick samples (AID 687004); type: functional, cell-based; conditions: Homo sapiens
[3] = biological target: T2, Replicative DNA helicase DnaB (Mycobacterium tuberculosis, UniProt P9WMR3); test: DnaB intein splicing inhibitors, dose response, biochemical, cell-free fluorescence (AID 449749); type: functional
T2 sequence (P9WMR3 whole entry): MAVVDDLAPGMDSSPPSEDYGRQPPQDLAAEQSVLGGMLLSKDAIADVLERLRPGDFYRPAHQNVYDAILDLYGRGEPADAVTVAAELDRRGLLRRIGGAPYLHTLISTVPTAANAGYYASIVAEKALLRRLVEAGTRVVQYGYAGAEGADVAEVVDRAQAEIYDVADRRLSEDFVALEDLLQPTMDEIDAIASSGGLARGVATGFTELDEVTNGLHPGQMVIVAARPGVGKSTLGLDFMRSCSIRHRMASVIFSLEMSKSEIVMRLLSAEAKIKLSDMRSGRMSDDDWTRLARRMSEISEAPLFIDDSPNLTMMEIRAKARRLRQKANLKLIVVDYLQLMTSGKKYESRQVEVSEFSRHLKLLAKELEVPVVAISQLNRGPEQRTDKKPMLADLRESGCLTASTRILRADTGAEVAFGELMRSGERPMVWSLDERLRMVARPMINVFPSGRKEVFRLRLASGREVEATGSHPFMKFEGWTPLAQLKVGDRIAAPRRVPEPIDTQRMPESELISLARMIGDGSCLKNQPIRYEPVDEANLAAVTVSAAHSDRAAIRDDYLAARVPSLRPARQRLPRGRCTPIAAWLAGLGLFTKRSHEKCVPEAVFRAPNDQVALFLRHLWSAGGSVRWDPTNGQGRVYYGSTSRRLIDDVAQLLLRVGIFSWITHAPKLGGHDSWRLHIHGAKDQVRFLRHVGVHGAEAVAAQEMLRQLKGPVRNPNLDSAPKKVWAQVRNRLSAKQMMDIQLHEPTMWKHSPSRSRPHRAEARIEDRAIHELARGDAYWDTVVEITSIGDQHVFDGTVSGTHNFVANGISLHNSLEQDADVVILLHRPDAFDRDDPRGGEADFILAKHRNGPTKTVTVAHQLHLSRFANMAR

Protein RecA = biological target: T3, Protein RecA (Mycobacterium tuberculosis, UniProt P9WHJ3); test: Fluorescence Cell-Free Homogeneous Dose Retest to Identify Inhibitors of RecA-Intein Splicing Activity. [Related pubchem assays (depositor defined):AID2097, AID2223, AID489010, AID492950]; type: functional
T3 sequence (P9WHJ3 whole entry): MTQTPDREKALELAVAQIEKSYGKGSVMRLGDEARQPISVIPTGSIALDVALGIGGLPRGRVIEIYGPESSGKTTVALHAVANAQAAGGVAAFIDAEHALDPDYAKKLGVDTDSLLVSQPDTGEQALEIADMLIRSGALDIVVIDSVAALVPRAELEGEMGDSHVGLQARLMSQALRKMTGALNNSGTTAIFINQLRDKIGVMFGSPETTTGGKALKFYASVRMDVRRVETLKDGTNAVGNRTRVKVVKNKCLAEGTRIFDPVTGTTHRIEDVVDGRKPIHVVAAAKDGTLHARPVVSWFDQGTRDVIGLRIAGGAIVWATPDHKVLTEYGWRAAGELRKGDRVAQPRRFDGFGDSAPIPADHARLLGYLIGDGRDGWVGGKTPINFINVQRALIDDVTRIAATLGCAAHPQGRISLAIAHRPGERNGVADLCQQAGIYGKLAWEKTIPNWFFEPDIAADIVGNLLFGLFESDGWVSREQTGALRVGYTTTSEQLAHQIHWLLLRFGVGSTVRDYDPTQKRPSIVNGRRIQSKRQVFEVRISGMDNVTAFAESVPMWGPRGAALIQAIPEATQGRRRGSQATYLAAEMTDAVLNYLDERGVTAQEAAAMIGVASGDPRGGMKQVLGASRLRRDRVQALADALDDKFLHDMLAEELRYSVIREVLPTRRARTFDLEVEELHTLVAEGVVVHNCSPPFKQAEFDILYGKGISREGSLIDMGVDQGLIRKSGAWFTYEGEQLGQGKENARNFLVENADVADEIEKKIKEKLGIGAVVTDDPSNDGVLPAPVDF

[4] = biological target: T4, Tyrosyl-DNA phosphodiesterase 2 (Homo sapiens, UniProt O95551); test: human TDP2 enzyme inhibitors, dose response, biochemical, epi absorbance, IC50 (AID 743297)
T4 sequence (O95551 whole entry): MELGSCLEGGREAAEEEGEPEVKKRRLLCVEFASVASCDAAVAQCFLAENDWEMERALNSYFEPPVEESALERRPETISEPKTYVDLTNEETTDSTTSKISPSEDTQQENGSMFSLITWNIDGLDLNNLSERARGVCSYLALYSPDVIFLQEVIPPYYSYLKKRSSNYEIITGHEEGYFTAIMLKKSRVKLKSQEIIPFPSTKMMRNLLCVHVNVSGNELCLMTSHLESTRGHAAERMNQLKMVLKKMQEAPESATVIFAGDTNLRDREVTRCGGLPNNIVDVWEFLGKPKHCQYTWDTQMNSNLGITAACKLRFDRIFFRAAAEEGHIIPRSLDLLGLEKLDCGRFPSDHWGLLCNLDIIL

Galanin receptor type 3 = biological target: T5, Galanin receptor type 3 (Homo sapiens, UniProt O60755); test: Fluorescence-based cell-based primary high throughput dose response assay to identify antagonists of the Galanin Receptor 3 (GalR3).; type: functional
T5 sequence (O60755 whole entry): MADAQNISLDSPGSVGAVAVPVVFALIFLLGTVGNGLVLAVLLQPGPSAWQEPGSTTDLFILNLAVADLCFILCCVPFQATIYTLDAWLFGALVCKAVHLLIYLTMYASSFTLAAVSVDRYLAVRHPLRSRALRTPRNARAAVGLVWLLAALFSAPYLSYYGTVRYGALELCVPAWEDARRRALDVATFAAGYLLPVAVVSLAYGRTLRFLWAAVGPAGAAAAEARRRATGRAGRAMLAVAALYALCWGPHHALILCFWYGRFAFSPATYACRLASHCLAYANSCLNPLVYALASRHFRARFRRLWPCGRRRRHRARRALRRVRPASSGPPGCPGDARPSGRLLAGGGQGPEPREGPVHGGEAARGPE

cells = type: functional, cell-based; conditions: HEK-CNG
[5] = growth suppression of PTEN-null colon cells, dose response, cell-based, HCT116 PTEN knockout (AID 1047); type: functional;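 also: HCT116 colon tumor cells with PTEN knocked out; cells exposed to compound for 60 hours before readout; potency for loss of cell viability measured by luminescence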
[6] = growth suppression of beta-catenin-knockout colon cells, dose response, cell-based, HCT116, human colon tumor (AID 1045); type: functional;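 also: HCT116 colon tumor cells with beta catenin knocked out; cells exposed to compound for 60 hours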
[7] = biological target: Voltage-dependent T-type calcium channel subunit alpha-1H (Homo sapiens, UniProt O95180); type: functional;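 also: channel activity triggered by adding a high calcium stimulation buffer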
[8] = HEK293T cytotoxicity, dose response, cytotoxicity control for miR-122 modulator project, cell-based, inhibitor set, cherry-pick, set 2 (AID 720697); type: functional
[9] = HEK293T cytotoxicity, dose response, cytotoxicity control for miR-122 modulator project, cell-based, activator set, cherry-pick (AID 720690); type: functional;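 also: HEK293T human cells scored for general mammalian cytotoxicity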

Sequence of Voltage-dependent T-type calcium channel subunit alpha-1H (O95180 whole entry): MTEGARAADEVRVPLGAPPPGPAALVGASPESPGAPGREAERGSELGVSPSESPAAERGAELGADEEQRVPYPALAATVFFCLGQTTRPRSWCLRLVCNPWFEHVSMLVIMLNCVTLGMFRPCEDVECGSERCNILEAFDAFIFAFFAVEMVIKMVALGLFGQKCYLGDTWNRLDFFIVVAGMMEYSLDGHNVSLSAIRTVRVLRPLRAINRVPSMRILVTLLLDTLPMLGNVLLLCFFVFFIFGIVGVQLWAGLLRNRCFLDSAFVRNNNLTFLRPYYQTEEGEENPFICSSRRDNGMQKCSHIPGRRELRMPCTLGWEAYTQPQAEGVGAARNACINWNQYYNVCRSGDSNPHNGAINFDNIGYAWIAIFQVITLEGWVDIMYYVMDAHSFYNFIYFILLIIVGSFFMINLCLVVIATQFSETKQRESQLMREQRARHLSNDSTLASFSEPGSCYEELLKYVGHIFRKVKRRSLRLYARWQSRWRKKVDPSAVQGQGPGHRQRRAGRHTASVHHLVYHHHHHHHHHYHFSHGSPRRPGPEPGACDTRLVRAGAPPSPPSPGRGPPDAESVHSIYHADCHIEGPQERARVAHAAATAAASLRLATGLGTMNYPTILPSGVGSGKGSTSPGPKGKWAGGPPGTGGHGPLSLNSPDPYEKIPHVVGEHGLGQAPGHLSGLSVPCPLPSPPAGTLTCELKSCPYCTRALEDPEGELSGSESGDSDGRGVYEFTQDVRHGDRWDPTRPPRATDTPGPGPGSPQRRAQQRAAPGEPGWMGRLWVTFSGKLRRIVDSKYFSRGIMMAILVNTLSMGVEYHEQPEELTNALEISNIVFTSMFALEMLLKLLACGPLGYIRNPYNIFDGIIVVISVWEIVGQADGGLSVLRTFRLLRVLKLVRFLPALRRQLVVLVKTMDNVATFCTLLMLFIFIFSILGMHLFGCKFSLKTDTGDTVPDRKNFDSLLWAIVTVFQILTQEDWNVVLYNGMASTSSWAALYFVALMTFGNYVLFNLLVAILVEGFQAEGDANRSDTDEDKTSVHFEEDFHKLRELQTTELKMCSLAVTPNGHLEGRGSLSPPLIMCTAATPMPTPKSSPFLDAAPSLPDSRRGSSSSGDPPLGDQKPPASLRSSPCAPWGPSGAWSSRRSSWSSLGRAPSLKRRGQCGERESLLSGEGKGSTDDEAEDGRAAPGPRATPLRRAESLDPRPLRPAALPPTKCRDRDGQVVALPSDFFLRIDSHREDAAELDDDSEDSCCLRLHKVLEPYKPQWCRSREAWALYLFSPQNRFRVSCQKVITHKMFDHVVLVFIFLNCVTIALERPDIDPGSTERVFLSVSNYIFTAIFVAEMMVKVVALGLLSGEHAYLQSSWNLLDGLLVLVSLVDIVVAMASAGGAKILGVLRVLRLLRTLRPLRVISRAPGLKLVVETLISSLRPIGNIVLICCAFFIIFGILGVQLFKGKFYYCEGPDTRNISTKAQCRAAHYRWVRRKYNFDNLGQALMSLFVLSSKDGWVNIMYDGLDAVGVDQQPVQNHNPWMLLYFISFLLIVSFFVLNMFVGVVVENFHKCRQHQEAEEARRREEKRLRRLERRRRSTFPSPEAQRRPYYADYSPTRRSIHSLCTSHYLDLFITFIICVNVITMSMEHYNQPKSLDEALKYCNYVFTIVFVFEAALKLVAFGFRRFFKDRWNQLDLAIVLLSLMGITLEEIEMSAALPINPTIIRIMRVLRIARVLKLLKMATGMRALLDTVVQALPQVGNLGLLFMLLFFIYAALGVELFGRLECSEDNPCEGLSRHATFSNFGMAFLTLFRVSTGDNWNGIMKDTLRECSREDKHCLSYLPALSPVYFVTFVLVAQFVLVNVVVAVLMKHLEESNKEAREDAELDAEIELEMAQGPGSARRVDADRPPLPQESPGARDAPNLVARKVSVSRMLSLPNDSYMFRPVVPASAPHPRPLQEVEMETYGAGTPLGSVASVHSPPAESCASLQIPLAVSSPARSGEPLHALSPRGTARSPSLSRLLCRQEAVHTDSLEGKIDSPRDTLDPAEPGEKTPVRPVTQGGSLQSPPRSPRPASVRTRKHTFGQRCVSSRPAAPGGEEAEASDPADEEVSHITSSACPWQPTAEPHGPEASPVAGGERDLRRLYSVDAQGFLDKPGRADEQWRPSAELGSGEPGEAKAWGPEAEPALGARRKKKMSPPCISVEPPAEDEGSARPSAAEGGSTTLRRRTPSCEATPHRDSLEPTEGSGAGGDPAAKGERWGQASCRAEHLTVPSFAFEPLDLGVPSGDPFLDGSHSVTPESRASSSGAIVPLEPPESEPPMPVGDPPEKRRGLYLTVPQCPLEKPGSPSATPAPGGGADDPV

For CC(=O)Nc1ccc(N2C(=O)CC(Sc3nc4ccccc4s3)C2=O)cc1 (stereo not drawn), the IC50 [1] was > 67.5 µM (inactive) and the EC50 [2] was > 67.5 µM (inactive).

In the case of COC(=O)C1=C(C)N(Cc2ccccc2)C(=S)N[C@H]1c1cccc(C(F)(F)F)c1, the AC50 (HeLa) is reported as > 52 µM (inactive).

With COc1cc(/C=C2/C(=O)N(c3ccc([N+](=O)[O-])cc3)N=C2N2CCOCC2)ccc1O the AC50 [3] was 19.7 µM (active), the EC50 (Protein RecA) was 6.68 µM (active) and the IC50 [4] was > 128 µM (inactive).

For COc1cc(CCC(=O)OCC(=O)Nc2sccc2C(N)=O)cc(OC)c1OC, the IC50 (Galanin receptor type 3) was 1.55 µM (active) and the EC50 (cells) was > 29.9 µM (inactive).

With Cc1ccc(OCC(O)Cn2c(=N)n(Cc3ccccc3)c3ccccc32)cc1 (stereo not drawn) the EC50 [5] was 4.53 µM (active), the EC50 [6] was 4.31 µM (active) and the EC50 [7] was 4.11 µM (active). The AC50 [8] was 7.65 µM (active) and the AC50 [9] was 14.4 µM (active).
